Patent publication US10738044B2, “Therapeutic compound and use in therapy” (PROXIMAGEN, LLC, priority 2015, dated 2020)

Tests used:
[1] = test system: female C57BL/6 mice, CCl4-induced liver fibrosis; test: Carbon tetrachloride induced liver fibrosis model; type: in vivo, mouse; settings: 100 mg/kg bid orally for 28 days; FIG. 8
Description: Example 1 was assessed in a carbon tetrachloride (CCl4)-induced Liver Fibrosis Model. 7 week old female C57BL/6 mice were divided into four groups (n=5/group for one Control group to act as non-disease comparator and n=10/group for three CCl4-treated groups based on their body weight the day before the start of the treatment. Thirty mice were intraperitoneally administered 5% CCl4 in mineral oil at a volume of 100 uL twice a week (days 0, 4, 11, 14, 18, 21 and 25). Five mice intraperitoneally administered mineral oil instead of the 5% CCl4, served as the non-diseased control group. Example 1 (100 mg/kg bid), Valsartan (20 mg/kg qd, positive control) and Vehicle were administered orally (dose volume=10 mL/kg) for 28 days (days −1 to 27). […] For quantitative analysis of fibrosis area, bright field images of Sirius red-stained section was blindly captured using a digital camera at 100-fold magnification, and the Sirius red-stained positive areas in 5 fields/4 um section/mouse were measured using ImageJ software (National Institute of Health, USA) and in accordance with the following expression: (collagen area/total area-vascular lumen area)×100. […] Results were expressed as mean±SD. Comparison of the Valsartan group and Vehicle group in fibrosis area was assessed with student's t-test to confirm whether Valsartan worked as a positive control.

[2] = test system: serum TNFα in female Swiss Webster mice; test: Murine model of LPS-induced cytokine release; type: in vivo, mouse; settings: oral administration one hour prior to LPS challenge; serum one hour after LPS; FIG. 9
Description: Example 1 was assessed in an LPS-induced cytokine release assay. One hour after administration of Example 1, female Swiss Webster mice (n=5 per group) were injected intraperitoneally with 2 mL/kg LPS (1.5 mg/mL). One hour after LPS injection the mice were anesthetized and exsanguinated into pre-chilled serum separator microtainer tubes. The blood was processed to serum which was stored at −80° C. The frozen serum aliquots were thawed to room temperature, diluted 1:5 with sterile saline and assayed by ELISA for TNFα.

[3] = test system: C57BL/10ScSn-Dmdx/J male mice; test: Murine model of Duchenne's muscular dystrophy (mdx mice); type: in vivo, mouse; settings: 100 mg/kg po bid for 4 weeks; FIG. 11
Description: C57BL/10ScSn-Dmdx/J male mice were dosed from 27 days for 4 weeks with either vehicle (n=5), prednisolone (1 mg/kg ip qd, n=8) or Example 1 (100 mg/kg po bid, n=8). At 8 weeks of age, blood was collected by retro-orbital bleeding, and mice were humanely euthanized by CO2 asphyxiation. One triceps surae was collected fresh and processed for immune cell sorting, one tibialis anterior was preserved in RNALater for RNA extraction, one whole hind limb and the diaphragm were fixed in 2% paraformaldehyde overnight at 4° C. for paraffin embedding and histology stains. Serum was prepared immediately after collection and frozen at −20° C. At the end of the study, all serum samples were dosed for Creatine Kinase on a Beckman Coulter AU Clinical Chemistry analyzer following manufacturer instructions (a modification of the International Federation of Clinical Chemistry method).
For immune cell sorting, muscle samples were enzymatically and mechanically dissociated following manufacturer instructions (Skeletal Muscle Dissociation KitCatalog no. 130-098-305, Miltenyi Biotec). Cells were stained with the following antibodies:
Stained cells were analyzed on a BD LSR II cytometer and counts of different populations were expressed in percentage of the number of live cells counted. Total RNAs were extracted with a modification of the Trizol method, reverse transcribed, and mRNAs of TGFα, and the following inflammation markers were quantified by the SYBR green method with GAPDH as a normalizer: […]

[4] = test system: C57BL6 mice, laser-induced choroidal burns; test: Mouse choroidal neovascularisation model; type: in vivo; settings: topical 5 uL instillations tid days 0 to 12; day 12; FIG. 10
Description: Example 1 was assessed in a mouse choroidal neovascularisation model. Pigmented mice (C57BL6 strain, n=15 per group) each were induced with 3 choroidal burns in the right eyes using a 532 nm photocoagulator. Example 1 and vehicle were dosed topically using 5 uL instillations tid from days 0 to 12. On day 12, lesion size was determined by isolectine B4 immunostaining on flatmount choroids from the treated eyes and confocal microscopy for determining the size of the lesion.

[5] = test system: DSS-treated mice, established colitis; test: Chronic DSS-induced colitis mouse model; type: in vivo
Description: Example 1 was assessed in the treatment of established disease in the chronic Dextran Sulphate (DSS)-induced colitis model. DSS was administered in the drinking water as a 3% solution for five days. DSS-treated mice were orally administered vehicle, 6-Thioguanine (0.5 mg/kg) or Example 1 (10 mg/kg, 30 mg/kg or 100 mg/kg) b.i.d. from Days 6 to 19. A no treatment control group of 5 mice was also used. Body weights were measured daily for 19 days and animals were assessed visually for the presence of diarrhea and/or bloody stool. All animals underwent video endoscopy on Days 5 (baseline), 12 and 19 to assess the extent of colitis and whether any beneficial treatment effects could be observed. All animals were euthanized on Day 19 to obtain colon tissues for pathology examination.

[6] = test system: female SJL mice, experimental allergic encephalomyelitis; test: Mouse PLP139-151 relapsing-remitting EAE model; type: in vivo; settings: 3, 10, 30 or 100 mg/kg orally twice daily, therapeutic; FIG. 7
Description: Example 1 was assessed in a PLP139-151 remitting and relapsing model of experimental allergic encephalomyelitis (EAE) in female SJL mice as an indicator of a potential treatment for multiple sclerosis in humans.
Adjuvant was prepared by homogenizing 100 mg Mycobacterium tuberculosis H37 RA in 50 mL Incomplete Freund's Adjuvant to prepare a 2 mg/mL suspension which was stored at 4-8° C. 50 ug pertussis toxin from Bordetella pertussis was reconstituted in 50 mL sterile PBS to prepare a 1 ug/mL solution which was kept in an ice bath. 10.35 mg PLP139-151 was dissolved in 10.35 mL sterile PBS to prepare a 1 mg/mL solution. 10 mL of PLP139-151 was emulsified with 10 mL adjuvant in ten batches in an ice bath to prepare a 0.5 mg/mL PLP139-151/1 mg/mL M. tuberculosis H37 RA emulsion which was kept in an ice bath. […] On day 0, 70 mice were injected subcutaneously in both flanks with 0.1 mL of the PLP139-151/CFA emulsion. Two hours later the mice were injected by intraperitoneal route with 0.2 mL pertussis toxin (200 ng/mouse). The mice were returned to routine maintenance with no adverse effects. On day 2, the mice were injected IP with 0.2 mL of pertussis toxin (200 ng/mouse). From day 7 the mice were weighed and scored for signs of disease as follows: 0=no obvious signs of motor dysfunction compared to non-immunized control; 1=limp or floppy tail; 2=limp tail and weakness in hind legs; 3=limp tail and complete paralysis of legs or limp tail with paralysis of one front and one hind leg; 4=limp tail, complete hind leg and partial front leg paralysis; 5=complete hind and complete front leg paralysis. On days 10-12, the mice were sorted into treatment groups based upon average score and twice daily oral administration of Example 1 (3, 10, 30 or 100 mg/kg), dexamethasone or vehicle (n=10 per group) was initiated. The disease score was monitored for 20 days.

[7] = test system: male DBA/1J mice, collagen-induced arthritis; test: Established mouse collagen-induced arthritis model; type: in vivo
Description: Example 1 was assessed in an established mouse collagen-induced arthritis model. Disease was induced in male DBA/1J mice by means of a subcutaneous injection of a collagen (bovine)/CFA emulsion at the base of the tail. Each paw was scored daily and the sum of all four scores was recorded as the Arthritic Index (AI). The maximum possible AI was 16 (0=no visible effects of arthritis, 1=edema and/or erythema of one digit, 2=edema and/or erythema of 2 joints, 3=edema and/or erythema of more than 2 joints, 4=severe arthritis of the entire paw and digits including limb deformation and ankylosis of the joint). As animals developed disease, they were sorted into treatment groups with AI in the range of 2-6 and an average group AI of 3.6 prior to initiation of the dosing regimen. Example 1 (10, 50 and 100 mg/kg) was administered orally twice daily from day 30 post-inoculation.
Histological evaluation of the rear right hind limbs was also carried out. The joints were scored for severity of arthritis (inflammation, pannus, cartilage damage and bone damage) by a board certified pathologist, who was blind to the assigned treatment.

[8] = 100 mg/kg orally twice daily, rear right hind limbs, FIG. 2

With `CC(C)[C@H]1c2[nH]cnc2CCN1C(=O)OCc1ccc(OCCCN(C)C)cc1` [Example 1, {4-[3-(Dimethylamino)propoxy]phenyl}methyl (4S)-4-(propan-2-yl)-3H,4H,5H,6H,7H-imidazo[4,5-c]pyridine-5-carboxylate] the “deposition of collagen in the liver (Sirius red staining)” value [1] was “significantly reduced”, the “serum TNFα levels relative to vehicle control” value [2] was “statistically significant dose-dependent decrease” and the B cells [3] was “significant reduction”. The T cells [3] was “significant reduction”, the TGFβ [3] was “significant reduction” and the cytokines [3] was “significant reduction”. For the same compound, the macrophages [3] was “significant reduction”, the pro-inflammatory monocytes [3] was “significant reduction” and the “lesion size versus vehicle” value [4] was “significant reduction”. The “magnitude of the effect relative to positive control 6-Thioguanine (0.5 mg/kg)” value ([5]; 100 mg/kg orally b.i.d.) was “comparable to the effect seen with the positive control”, the overall body weight ([5]; 100 mg/kg orally b.i.d., FIG. 3) was “statistically significant effects” and the “endoscopy scores on day 12” value ([5]; 100 mg/kg orally b.i.d., FIG. 4) was “statistically significant effects”. The colon weight ([5]; 100 mg/kg orally b.i.d., FIG. 5) was “statistically significant effects”, the diarrhea ([5]; 100 mg/kg orally b.i.d., FIG. 6) was “statistically significant effects” and the “overall effect in the DSS colitis model” value ([5]; 10, 30 or 100 mg/kg orally b.i.d., Days 6 to 19) was “dose-dependent improvement”. For the same compound, the “disease severity (EAE score)” value [6] was “decrease in disease severity”, the “time to disease relapse” value [6] was “increased time to disease relapse” and the “time to disease remission” value [6] was “dose-dependent decrease in the time to disease remission”. The “reduction in disease severity (Arthritic Index)” value ([7]; 100 mg/kg orally twice daily, after two weeks of therapy, FIG. 1) was 46%, the “inhibition of bone resorption (joint histology)” value [7, 8] was 84% and the “inhibition of cartilage damage (joint histology)” value [7, 8] was 60%. The “inhibition of inflammation (joint histology)” value [7, 8] was 60%, the “inhibition of pannus formation (joint histology)” value [7, 8] was 84% and the “rate of disease development (Arthritic Index)” value ([7]; 10, 50 and 100 mg/kg orally twice daily from day 30 post-inoculation, FIG. 1) was “dose-dependent decrease in the rate of disease development”.
